For assay [1], the system named is ApoB-100-associated lipoproteins. In words: Inhibition of the release of ApoB-100-associated lipoproteins from HepG2 cells (immunoassay for human LDL). Type of assay: cell-based. The settings on record: Homo sapiens, HepG2, HepG2 cells; light absorption 450 nm vs solvent control. Put shortly: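 HepG2 cells grown in RPMI 1640 with 10% foetal calf serum, with ApoB-100 lipoprotein secreted into supernatant quantified by sandwich ELISA. Capture used affinity-purified rabbit anti-LDL and detection used peroxidase-conjugated monoclonal anti-LDL with TMB/H2O2, read at 450 nm after H2SO4. IC50 is the concentration halving absorbance versus solvent control.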

Assay [2] deals with intestinal triglyceride absorption. The assay is described as follows: Inhibition of intestinal triglyceride absorption in vivo (rats). Also on record: species or system male Wistar rats. The note with it: po; for ED50: Rattus norvegicus, serum triglyceride increase 2 h after triglyceride loading, fasting rats, read-out: Absorption ED50 or % inhibition; for Absorption ED50 or % inhibition: 2 h. How it is done:
The substances which are to be investigated for their triglyceride absorption-inhibiting action in vivo are administered orally to male Wistar rats having a body weight of between 170 and 230 g. For this purpose, the animals are divided into groups of 6 animals 18 hours before administration of the substance and the feed is then withdrawn from them. Drinking water is available to the animals ad libitum. The animals of the control groups receive an aqueous tragacanth suspension or a tragacanth suspension which contains olive oil. The tragacanth-olive oil suspension is prepared using an Ultra-Turrax. The substances to be investigated are suspended directly before substance administration in a corresponding tragacanth-olive oil suspension, also using an Ultra-Turrax.
Before stomach tube application, blood is taken from each rat by puncture of the retroorbital venous plexus to determine the basal serum triglyceride content. The tragacanth suspension, the tragacanth-olive oil suspensions without substance (control animals) and the substances suspended in a corresponding tragacanth-olive oil suspension are then administered to the fasting animals using a stomach tube. Further taking of blood for the determination of the postprandial serum triglyceride rise is carried out, as a rule, 1,2 and 3 hours after stomach tube application.
The blood samples are centrifuged and, after recovering the serum, the triglycerides are determined photometrically using an EPOS analyzer 5060 (Eppendorf Geratebau, Netheler & Hinz GmbH, Hamburg). The triglycerides are determined by fully enzymatic means using a commercially available UV test.
The postprandial serum triglyceride increase is determined by subtraction of the triglyceride preliminary value of each animal from its corresponding postprandial triglyceride concentrations (1,2 and 3 hours after administration).
The differences (in mmol/l) at each time 1, 2 and 3 hours) are averaged in the groups, and the average values of the serum triglyceride increase (ΔTG) of the substance-treated animals are compared with the animals which only received the tragacanth-oil suspension.
Likewise, the serum triglyceride course of the control animals which received only tragacanth is calculated. The substance effect at each time (1, 2 or 3 hours) is determined as follows and given in Δ% of the oil-loaded control. [formula]
Effect of 10 mg of test substance/kg of body weight p.o. on the triglyceride increase (Δ%) 2 h after a triglyceride loading in the serum of fasting rats. The serum triglyceride increase of fat-loaded control animals based on the serum triglyceride level of tragacanth control animals corresponds to 100%. n=6 animals per group.
Statistical assessment was carried out using student3 s t test after prior checking of the variances for homogeneity.

Assay [3] has as its system VLDL secretion. The assay is described as follows: Inhibition of VLDL secretion in vivo (rat) (Triton rat). The settings on record: Rattus norvegicus, po, 2 h, 3 mg/kg p.o., (n.s.) for 112, 114, 117, 154, 175, 176, 227, read-out: Triton rat % TG inhibition (p.o.) 2 h after substance. How it is done: The action of the test substances on VLDL secretion is also investigated in the rat. To do this, 500 mg/kg of body weight (2.5 ml/kg) of Triton WR-1339, dissolved in physiological saline solution, are administered to rats intravenously in the tail vein. Triton WR-1339 inhibits lipoprotein lipase and thus leads through inhibition of VLDL catabolism to an increase in the triglyceride and cholesterol level. These increases can be used as a measure of the VLDL secretion rate.
Blood is taken from the animals before and one and two hours after administration of the detergent by puncture of the retroorbital venous plexus. The blood is incubated at room temperature for 1 h for clotting and the serum is recovered by centrifugation at 10,000 g for 20 s. The triglycerides are then determined photometrically at a wavelength of 540 nm by means of a commercially available coupled enzyme test (Sigma Diagnostics®, No. 339). Measurement is carried out with the aid of a likewise coupled enzyme test (Boehringer Mannheim®, No. 1442350) at a wavelength of 546 nm. Samples with triglyceride or cholesterol concentrations which exceed the measuring range of the methods are diluted with physiological saline solution. The respective serum concentrations are determined with the aid of standard series measured in parallel. Test substances are administered orally, intravenously or subcutaneously immediately after the Triton injection.

Assay [4] has as its system VLDL secretion. In words: Determination of VLDL secretion in vivo in the hamster (Triton hamster). The arrangement: species or system golden hamster. The settings on record: 6 mg/kg i.v. The procedure: The effects of the test substances on VLDL secretion in vivo is investigated in the hamster. To do this, golden hamsters are anaesthetized with Ketavet (83 mg/kg s.c.) and Nembutal (50 mg/kg i.p.) after premedication with atropine ([…] s.c.). When the animals have become reflex-free, the jugular vein is exposed and cannulated. 0.25 ml/kg of a 20% strength solution of Triton WR 1339 in physiological saline solution is then administered. This detergent inhibits the lipoprotein lipase and thus leads to an increase in the triglyceride level as a result of lack of catabolism of secreted VLDL particles. This triglyceride increase can be used as a measure of the VLDL secretion rate. Blood is taken from the animals before and one and two hours after administration of the detergent by puncture of the retroorbital venous plexus. The blood is incubated for two hours at room temperature, then overnight at 4° C. in order to finish clotting completely. […] The triglyceride concentration in the serum thus obtained is determined with the aid of a modified commercially available enzyme test (Merckotest® triglyceride No. 14354). […] The optical density is then determined at a wavelength of 492 nm in an automatic plate-reading apparatus (SLT spectra). […] The triglyceride concentration contained in the samples is determined with the aid of a standard curve measured in parallel. […]

This note sets out measurements from US5714494A, “Xanthines in the 7th position with a benzyl acetic acid moiety” (Bayer Aktiengesellschaft, priority 1995, dated 1998).

The structures appear in SMILES notation. Where only a bound is given, the exact number is not on record here.

In general, IC50 refers to the point on the concentration scale where inhibition reaches its midpoint. Read a high IC50 as weaker potency. One may read the ED50 as the midpoint of the dose-response relation.

In the case of `Cc1ccc(-c2nc3c(c(=O)n(C)c(=O)n3C)n2Cc2ccc(C(C(=O)N[C@@H](CO)c3ccccc3)C3CCCC3)cc2)cc1` (stereo partly shown) [Example 112], in assay [1], the midpoint of inhibition, the IC50, lay at 4 nM. Also, the ED50 in assay [2] is 3 mg/kg. The inhibition in vivo at 3 mg/kg in assay [3] was found to be 17%.

`Cn1c(=O)c2c(nc(-c3ccccc3)n2Cc2ccc(C(C(=O)N[C@@H](CO)c3ccccc3)C3CCCC3)cc2)n(C)c1=O` (stereo partly shown) [Example 129] came in with an IC50 in assay [1] of 34 nM. In addition, in assay [4] (cholesterol), the “Triton hamster % CH inhibition 2 h after substance” value is reported as 25%. Also, the “Triton hamster % TG inhibition 2 h after substance” value in assay [4] (triglycerides) worked out at 25%. For the same compound, in assay [2], the ED50 was determined as 20 mg/kg.

Regarding `Cn1c(=O)c2c(nc(-c3ccsc3)n2Cc2ccc(C(C(=O)N[C@@H](CO)c3ccccc3)C3CCCC3)cc2)n(C)c1=O` (stereo partly shown) [Example 154], in assay [1], inhibition was half-maximal at 3 nM (IC50). In addition, the “Absorption ED50 or % inhibition” value in assay [2] was less than 2 mg/kg. In addition, the inhibition in vivo at 3 mg/kg in assay [3] was -4%.

As to `Cn1c(=O)c2c(nc(-c3cccs3)n2Cc2ccc(C(C(=O)N[C@@H](CO)c3ccccc3)C3CCCC3)cc2)n(C)c1=O` (stereo partly shown) [Example 157], in assay [1], the IC50 worked out at 8 nM. Besides, the “Absorption ED50 or % inhibition” value in assay [2] was more than 2 mg/kg. The inhibition in vivo at 3 mg/kg in assay [3] came to 11.3%.

The compound `Cn1c(=O)c2c(nc(CCc3ccccc3)n2Cc2ccc(C(C(=O)N[C@@H](CO)c3ccccc3)C3CCCC3)cc2)n(C)c1=O` (stereo partly drawn) [Example 227, 2-(R&S)-Cyclopentyl-2-[4-(1,3-dimethyl-2,6-dioxo-8-(2-phenyl-ethyl)-1,2,3,6-tetra-hydro-purin-7-yl-methyl)phenyl]acet-N-[1-(R)-1-phenyl-2-hydroxy-ethyl)amide] had an IC50 in assay [1] of 40 nM. Further, the “Absorption ED50 or % inhibition” value in assay [2] was more than 6 mg/kg. In addition, the inhibition in vivo at 3 mg/kg in assay [3] is -8%.
